As a reminder, the IC50 is the concentration needed to halve the response being measured. Read a high IC50 as weaker potency in that assay.

SMILES strings stand for the structures.

Common to all, as to type: cell-based
In one test the test system is COLO205 (colon). The test can be described thus: Inhibition of cell proliferation, CellTiter-Glo, COLO205. To be noted: Homo sapiens, COLO 205, 72 h. Summed up: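 Exponentially growing COLO205 cells in medium with 10% FBS were plated below 2000 cells/well at 37 °C, 5% CO2. Untreated wells served as controls.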
For orientation: Cellular ATP, detected with luciferase, serves as a proxy for viable cell number.

The test system of test [1] is NCI-H929 (multiple myeloma). The test can be described thus: Inhibition of cell proliferation, CellTiter-Glo, NCI-H929. To be noted: Homo sapiens, 72 h. The method, then: C. Inhibition of Cell Proliferation
Cell proliferation was measured by either CellTiter-Glo (measures cellular ATP level as a surrogate for total cell number) or by InCell analyzer (counts number of nuclei as a measure of cell number). For CellTiter-Glo assay, exponentially growing cell lines of different tumor origins, cultured in appropriate media containing 10% fetal bovine serum at 37° C. in a 5% CO2 incubator, were plated at low density (less than 2000 cells/well) in 96-well plates. Twenty four hours post-plating, cells were treated with different concentrations of test compounds ranging from 30 uM to 1.5 nM. Several wells were left untreated as a control. Seventy two hours post-treatment, cell numbers were determined using 50-100 ul per well of CellTiter-Glo (Promega #G7573). Plates were incubated at 37° C. for 30 minutes and the chemiluminescent signal was read on the Victor V or Envison 2100 reader. […]

Test [2] deals with T1, human IGF-1R (NIH-3T3 cells over expressing human IGF-1R) (Homo sapiens, UniProt P08069).
T1 construct: expressed in transfected cells; host or cells: NIH-3T3 (mouse fibroblasts)
T1 sequence (P08069 31-1367): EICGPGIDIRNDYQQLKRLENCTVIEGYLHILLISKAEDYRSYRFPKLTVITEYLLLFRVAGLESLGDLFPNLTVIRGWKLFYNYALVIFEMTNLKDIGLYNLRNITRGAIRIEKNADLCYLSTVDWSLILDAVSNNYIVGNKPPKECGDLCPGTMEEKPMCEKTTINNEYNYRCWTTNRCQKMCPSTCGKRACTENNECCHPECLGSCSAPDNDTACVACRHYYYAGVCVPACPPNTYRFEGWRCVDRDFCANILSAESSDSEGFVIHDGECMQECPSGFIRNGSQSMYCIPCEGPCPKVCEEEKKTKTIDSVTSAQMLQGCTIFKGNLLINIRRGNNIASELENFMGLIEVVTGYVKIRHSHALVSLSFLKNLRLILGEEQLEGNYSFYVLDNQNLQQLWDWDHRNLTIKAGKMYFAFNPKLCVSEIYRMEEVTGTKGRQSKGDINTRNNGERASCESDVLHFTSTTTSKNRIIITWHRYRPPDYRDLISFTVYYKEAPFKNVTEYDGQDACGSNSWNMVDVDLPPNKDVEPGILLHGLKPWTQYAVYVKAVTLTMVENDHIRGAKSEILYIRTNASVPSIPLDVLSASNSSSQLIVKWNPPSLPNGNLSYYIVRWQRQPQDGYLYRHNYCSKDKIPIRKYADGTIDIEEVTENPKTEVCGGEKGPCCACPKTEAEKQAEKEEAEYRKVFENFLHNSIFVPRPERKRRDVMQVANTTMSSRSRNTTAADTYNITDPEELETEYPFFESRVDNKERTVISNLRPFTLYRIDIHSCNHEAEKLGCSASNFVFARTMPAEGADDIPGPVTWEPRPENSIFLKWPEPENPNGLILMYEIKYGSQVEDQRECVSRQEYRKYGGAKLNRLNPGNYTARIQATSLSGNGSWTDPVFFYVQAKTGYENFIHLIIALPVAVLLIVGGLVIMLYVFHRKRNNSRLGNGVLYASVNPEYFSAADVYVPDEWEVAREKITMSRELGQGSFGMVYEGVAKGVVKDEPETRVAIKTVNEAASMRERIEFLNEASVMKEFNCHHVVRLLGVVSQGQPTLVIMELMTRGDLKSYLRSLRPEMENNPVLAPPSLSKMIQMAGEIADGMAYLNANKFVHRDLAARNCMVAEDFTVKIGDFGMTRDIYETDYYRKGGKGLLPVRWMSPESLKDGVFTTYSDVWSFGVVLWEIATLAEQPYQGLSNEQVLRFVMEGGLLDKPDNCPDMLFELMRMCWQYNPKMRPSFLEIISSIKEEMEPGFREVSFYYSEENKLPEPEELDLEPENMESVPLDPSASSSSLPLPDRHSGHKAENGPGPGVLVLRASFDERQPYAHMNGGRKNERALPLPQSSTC
As to the kind of experiment: IGF-1R cellular autophosphorylation (DELFIA). To be noted: IGF-1 stimulated. A digest of the protocol:
(§1)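 Readout: DELFIA on lysates, with anti-IGF-1R or anti-IR capture and europium anti-pTyr detection, expressed relative to 100% ligand-stimulated signal. Human IGF-1R- or IR-overexpressing NIH-3T3 cells got compound (1.5 nM–30 uM) for 2 h before 15 min IGF-1 (30 ng/mL) or insulin (3 ug/mL).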

Test [3] addresses T2, IR (NIH-3T3 cells over expressing human IGF-1R or IR) (Homo sapiens, UniProt P06213).
T2 construct: expressed in transfected cells; host or cells: NIH-3T3 (mouse fibroblasts)
As to the kind of experiment: IR cellular autophosphorylation (DELFIA). Conditions: NIH-3T3 cells over expressing IR, insulin stimulated. A digest of the protocol: as §1

T2 sequence (P06213 28-1382): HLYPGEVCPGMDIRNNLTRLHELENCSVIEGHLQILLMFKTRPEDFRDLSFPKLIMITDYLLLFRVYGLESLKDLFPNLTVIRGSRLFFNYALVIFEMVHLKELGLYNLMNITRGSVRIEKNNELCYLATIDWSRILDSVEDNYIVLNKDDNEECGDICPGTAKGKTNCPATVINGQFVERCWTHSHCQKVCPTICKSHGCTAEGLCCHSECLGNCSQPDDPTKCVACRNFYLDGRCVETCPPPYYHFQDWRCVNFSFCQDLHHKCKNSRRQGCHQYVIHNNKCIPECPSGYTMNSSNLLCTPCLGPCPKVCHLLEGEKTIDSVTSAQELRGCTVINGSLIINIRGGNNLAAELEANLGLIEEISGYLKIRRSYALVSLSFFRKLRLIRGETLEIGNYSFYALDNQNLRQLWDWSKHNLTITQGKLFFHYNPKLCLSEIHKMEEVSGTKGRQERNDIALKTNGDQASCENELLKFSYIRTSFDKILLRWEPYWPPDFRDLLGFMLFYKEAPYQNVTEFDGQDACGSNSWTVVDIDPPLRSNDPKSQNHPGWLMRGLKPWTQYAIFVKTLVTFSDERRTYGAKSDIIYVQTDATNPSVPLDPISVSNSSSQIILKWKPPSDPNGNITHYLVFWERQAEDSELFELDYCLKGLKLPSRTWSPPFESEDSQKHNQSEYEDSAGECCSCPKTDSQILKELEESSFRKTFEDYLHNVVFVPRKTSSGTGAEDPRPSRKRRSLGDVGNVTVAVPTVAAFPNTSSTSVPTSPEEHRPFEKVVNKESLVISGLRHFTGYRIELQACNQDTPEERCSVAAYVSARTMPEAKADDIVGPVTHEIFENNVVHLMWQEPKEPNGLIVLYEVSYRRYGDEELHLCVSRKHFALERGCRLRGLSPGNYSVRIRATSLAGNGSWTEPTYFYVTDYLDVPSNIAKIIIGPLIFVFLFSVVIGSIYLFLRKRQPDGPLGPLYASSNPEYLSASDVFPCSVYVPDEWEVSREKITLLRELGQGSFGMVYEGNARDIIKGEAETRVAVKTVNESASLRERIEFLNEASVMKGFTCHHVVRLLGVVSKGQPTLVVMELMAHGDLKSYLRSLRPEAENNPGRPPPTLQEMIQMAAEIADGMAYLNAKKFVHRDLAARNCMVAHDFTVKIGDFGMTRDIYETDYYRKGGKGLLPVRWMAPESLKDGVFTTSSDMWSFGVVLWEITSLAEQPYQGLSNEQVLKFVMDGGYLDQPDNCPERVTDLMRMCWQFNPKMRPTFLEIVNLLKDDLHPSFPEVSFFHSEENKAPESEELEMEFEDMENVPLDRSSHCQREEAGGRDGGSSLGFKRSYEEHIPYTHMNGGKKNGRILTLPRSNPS

With `COc1cc(N2CCC(CCS(C)(=O)=O)CC2)ccc1Nc1nccc(-c2c(-c3ccc(OC)c(C(=O)Nc4c(F)cccc4F)c3)nc3cc(F)ccn23)n1` [Example 216, N-(2,6-difluorophenyl)-5-(7-fluoro-3-{2-[(2-(methyloxy)-4-{4-[2-(methylsulfonyl)ethyl]-1-piperidinyl}phenyl)amino]-4-pyrimidinyl}imidazo[1,2-a]pyridin-2-yl)-2-(methyloxy)benzamide], the IC50 with COLO205 (colon) is 250 to 1000 nM; in test [1], below 250 nM.

Take `COc1cc(N2CCC(N3CCN(CCS(C)(=O)=O)CC3)CC2)c(C)cc1Nc1nccc(-c2c(-c3cccc(C(=O)Nc4c(F)cccc4F)c3)nc3ccccn23)n1` [Example 115, N-(2,6-difluorophenyl)-3-[3-(2-{[5-methyl-2-(methyloxy)-4-(4-{4-[2-(methylsulfonyl)ethyl]-1-piperazinyl}-1-piperidinyl)phenyl]amino]-4-pyrimidinyl)imidazo[1,2-a]pyridin-2-yl]benzamide]: the values for the half-maximal inhibitory concentration (IC50) (in the test on COLO205 (colon); in test [1]) were 250 to 1000 nM and below 250 nM, respectively.

On to `CCOc1cc(C2CCN(CCS(C)(=O)=O)CC2)ccc1Nc1nccc(-c2c(-c3ccc(OC(C)C)c(C(=O)Nc4c(F)cccc4F)c3)nc3ccccn23)n1` [Example 186, N-(2,6-difluorophenyl)-5-(3-{2-[(2-(ethyloxy)-4-{1-[2-(methylsulfonyl)ethyl]-4-piperidinyl}phenyl)amino]-4-pyrimidinyl}imidazo[1,2-a]pyridin-2-yl)-2-[(1-methylethyl)oxy]benzamide], for which the IC50 (in the test with COLO205 (colon); in test [1]) was below 250 nM throughout.

On to `CCOc1cc(N2CCN(CCS(C)(=O)=O)CC2)c(C)cc1Nc1nccc(-c2c(-c3ccc(OC(C)C)c(C(=O)Nc4c(F)cccc4F)c3)nc3ccccn23)n1` [Example 249, N-(2,6-difluorophenyl)-5-(3-{2-[(2-(ethyloxy)-5-methyl-4-{4-[2-(methylsulfonyl)ethyl]-1-piperazinyl}phenyl)amino]-4-pyrimidinyl}imidazo[1,2-a]pyridin-2-yl)-2-[(1-methylethyl)oxy]benzamide], for which the IC50 (in the test with COLO205 (colon); in test [1]) was below 250 nM in each case.

As for `CCOc1cc(N2CCC(N3CCN(S(C)(=O)=O)CC3)CC2)c(CC)cc1Nc1nccc(-c2c(-c3ccc(OCC)c(C(=O)Nc4c(F)cccc4F)c3)nc3ccccn23)n1` [Example 205, N-(2,6-difluorophenyl)-5-(3-{2-[(5-ethyl-2-(ethyloxy)-4-{4-[4-(methylsulfonyl)-1-piperazinyl]-1-piperidinyl}phenyl)amino]-4-pyrimidinyl}imidazo[1,2-a]pyridin-2-yl)-2-(ethyloxy)benzamide], the IC50 (with COLO205 (colon); in test [1]) was below 250 nM in each case.

`CCOc1cc(C2CCN(CCS(C)(=O)=O)CC2)ccc1Nc1nccc(-c2c(-c3ccc(OC)c(C(=O)Nc4c(F)cccc4F)c3)nc3ccccn23)n1` [Example 184, N-(2,6-difluorophenyl)-5-(3-{2-[(2-(ethyloxy)-4-{1-[2-(methylsulfonyl)ethyl]-4-piperidinyl}-phenyl)amino]-4-pyrimidinyl}imidazo[1,2-a]pyridin-2-yl)-2-(methyloxy)benzamide]: the IC50 (with COLO205 (colon); in test [1]) was below 250 nM in each case.

As for `CCOc1cc(N2CCC(CCS(C)(=O)=O)CC2)c(C)cc1Nc1nccc(-c2c(-c3ccc(OC)c(C(=O)Nc4c(F)cccc4F)c3)nc3cc(F)ccn23)n1` [Example 218, N-(2,6-difluorophenyl)-5-(3-{2-[(2-(ethyloxy)-5-methyl-4-{4-[2-(methylsulfonyl)ethyl]-1-piperidinyl}phenyl)amino]-4-pyrimidinyl}-7-fluoroimidazo[1,2-a]pyridin-2-yl)-2-(methyloxy)benzamide], the IC50 with COLO205 (colon) is 250 to 1000 nM; in test [1], below 250 nM.

Regarding `COc1cc(N2CCC(N3CCCCC3)CC2)ccc1Nc1nccc(-c2c(-c3cccc(C(=O)Nc4c(F)cccc4F)c3)nc3cc(C(F)(F)F)ccn23)n1` [Example 191, 3-[3-(2-{[4-(1,4′-bipiperidin-1′-yl)-2-(methyloxy)phenyl]amino}-4-pyrimidinyl)-7-(trifluoromethyl)imidazo[1,2-a]pyridin-2-yl]-N-(2,6-difluorophenyl)benzamide], the IC50 (in the test with COLO205 (colon); in test [1]) was above 1000 nM each time.

For the compound `CCOc1ccc(-c2nc3ccccn3c2-c2ccnc(Nc3ccc(C4CCN(CCS(C)(=O)=O)CC4)cc3OC)n2)cc1C(=O)Nc1c(F)cccc1F` [Example 182, N-(2,6-difluorophenyl)-2-(ethyloxy)-5-(3-{2-[(2-(methyloxy)-4-{1-[2-(methylsulfonyl)ethyl]-4-piperidinyl}phenyl)amino]-4-pyrimidinyl}imidazo[1,2-a]pyridin-2-yl)benzamide], the IC50 (in the test with COLO205 (colon); in test [1]) was below 250 nM throughout.

Regarding `COc1cc(N2CCC[C@@H](O)C2)ccc1Nc1nccc(-c2c(-c3cccc(C(=O)Nc4c(F)cccc4F)c3)nc3ccccn23)n1` [Example 170, N-(2,6-difluorophenyl)-3-[3-(2-{[4-[(3R)-3-hydroxy-1-piperidinyl]-2-(methyloxy)phenyl]amino}-4-pyrimidinyl)imidazo[1,2-a]pyridin-2-yl]benzamide], the IC50 in the test on COLO205 (colon) is 250 to 1000 nM; in test [2], below 100 nM; in test [3], 100 to 500 nM.

For `COc1cc(N2CCC(N3CCCCC3)CC2)ccc1Nc1nccc(-c2c(-c3ccc(OC)c(C(=O)Nc4c(F)cccc4F)c3)nc3cc(C)ccn23)n1` [Example 4, 5-[3-(2-{[4-(1,4′-bipiperidin-1′-yl)-2-(methyloxy)phenyl]amino}-4-pyrimidinyl)-7-methylimidazo[1,2-a]pyridin-2-yl]-N-(2,6-difluorophenyl)-2-(methyloxy)benzamide], the IC50 was 250 to 1000 nM in the test with COLO205 (colon), below 100 nM in test [2] and below 100 nM in test [3].

As for `COc1ccn2c(-c3ccnc(Nc4ccc(N5CCC(N6CCCCC6)CC5)cc4OC)n3)c(-c3cccc(C(=O)Nc4c(F)cccc4F)c3)nc2c1` [Example 39, 3-[3-(2-{[4-(1,4′-bipiperidin-1′-yl)-2-(methyloxy)phenyl]amino}-4-pyrimidinyl)-7-(methyloxy)imidazo[1,2-a]pyridin-2-yl]-N-(2,6-difluorophenyl)benzamide], the IC50 in the test on COLO205 (colon) is above 1000 nM; in test [2] it was below 100 nM; in test [3] it was 100 to 500 nM.

For `COc1cc(N2CCC(N3CCCCC3)CC2)c(F)cc1Nc1nccc(-c2c(-c3ccc(OC)c(C(=O)Nc4c(F)cccc4F)c3)nc3ccccn23)n1` [Example 107, 5-[3-(2-{[4-(1,4′-bipiperidin-1′-yl)-5-fluoro-2-(methyloxy)phenyl]amino}-4-pyrimidinyl)imidazo[1,2-a]pyridin-2-yl]-N-(2,6-difluorophenyl)-2-(methyloxy)benzamide], the IC50 in the test with COLO205 (colon) was 250 to 1000 nM; in test [2] it was below 100 nM; in test [3] it was below 100 nM.

Take `COc1cc(N2CCN(CCS(C)(=O)=O)CC2)ccc1Nc1nccc(-c2c(-c3ccc(OC)c(C(=O)Nc4c(F)cccc4F)c3)nc3ccccn23)n1` [Example 135, N-(2,6-difluorophenyl)-2-(methyloxy)-5-(3-{2-[(2-(methyloxy)-4-{4-[2-(methylsulfonyl)ethyl]-1-piperazinyl}phenyl)amino]-4-pyrimidinyl}imidazo[1,2-a]pyridin-2-yl)benzamide]: the IC50 in the test on COLO205 (colon) was 250 to 1000 nM; in test [2] it was below 100 nM; in test [3], below 100 nM.

For `COc1ccn2c(-c3ccnc(Nc4cccc(OCCN(C)C)c4)n3)c(-c3cccc(C(=O)Nc4ccc(F)cc4F)c3)nc2c1` [Example 16, N-(2,4-difluorophenyl)-3-[3-{2-[(3-{[2-(dimethylamino)ethyl]oxy}phenyl)amino]-4-pyrimidinyl}-7-(methyloxy)imidazo[1,2-a]pyridin-2-yl]benzamide], the half-maximal inhibitory concentration (IC50) with COLO205 (colon) is 250 to 1000 nM; in test [2], below 100 nM; in test [3], below 100 nM.

As for `COc1cc(N2CCC[C@H](O)C2)ccc1Nc1nccc(-c2c(-c3cccc(C(=O)Nc4c(F)cccc4F)c3)nc3ccccn23)n1` [Example 169, N-(2,6-difluorophenyl)-3-[3-(2-{[4-[(3S)-3-hydroxy-1-piperidinyl]-2-(methyloxy)phenyl]amino}-4-pyrimidinyl)imidazo[1,2-a]pyridin-2-yl]benzamide], the IC50 in the test on COLO205 (colon) was in the range of 250 to 1000 nM; in test [2], 100 to 500 nM; in test [3] it was 100 to 500 nM.

`CCCOc1cc(N2CCC(N3CCCCC3)CC2)ccc1Nc1nccc(-c2c(-c3cccc(C(=O)Nc4c(F)cccc4F)c3)nc3ccccn23)n1` [Example 33, 3-[3-(2-{[4-(1,4′-bipiperidin-1′-yl)-2-(propyloxy)phenyl]amino}-4-pyrimidinyl)imidazol[1,2-a]pyridin-2-yl]-N-(2,6-difluorophenyl)benzamide]: the results for the IC50 (with COLO205 (colon); in test [2]; in test [3]) were 250 to 1000 nM, below 100 nM and 100 to 500 nM, respectively.

Source of the values: patent US20100216779A1 (GLAXOSMITHKLINE LLC, priority 2007, published 2010).
